Data published in article PMC6974622, “DeepMalaria: Artificial Intelligence Driven Discovery of Potent Antiplasmodials” (Frontiers in Pharmacology, 2020).

tested on: multidrug resistant P. falciparum strain Dd2; test: SYBR Green I Plasmodium growth inhibition assay (fixed concentration screen and EC50); type: cell-based, Plasmodium falciparum; details: test dataset (macrocyclic library), class label, 1 µM
Procedure: P. falciparum cultures were maintained under standard culture conditions in RPMI 1640 medium supplemented with 25 mM HEPES, pH 7.4, 26 mM NaHCO3, 2% dextrose, 15 mg/L hypoxanthine, 25 mg/L gentamycin, and 0.5% Albumax II maintained at 37°C in 5% CO2 and 95% air. Initially, a fixed concentration phenotypic screening was performed against multidrug resistant P. falciparum strain Dd2 (resistant to chloroquine, pyrimethamine, and mefloquine) using a SYBR Green I assay ([Johnson et al., 2007]; [Vossen et al., 2010]). An EVO-150 robotic liquid handler (Tecan, Morrisville, NC) was used to aliquot compounds at a final concentration of 1 µM followed by addition of culture to 96-well plates (Greiner, Monroe, NC) at 1% parasitemia, 2% hematocrit. Plates were incubated for 72 h at 37°C in a humidified atmosphere 5% CO2/95% air prior to freezing. Plates were subsequently thawed and 1X SYBR Green I was added with lysis buffer (20 mM Tris-HCl, 0.08% saponin, 5 mM EDTA, 0.8% Triton X-100). After incubation at room temperature in dark for 1 h, the fluorescent emission was measured at excition and emission wavelengths of 485 nm and 530 nm, respectively, using a BioTek Synergy neo2 (Winooski, VT) plate reader. […] Curve fitting was performed using GraphPad Prism and EC50 value was determined for each compound.

In the case of CC(=O)N1CCCN(Cc2ccccc2)CCN(C(=O)c2ccccc2F)Cc2cc(F)c(F)cc21, the DD2 is reported as 0 (zero if otherwise).
For C[C@H]1C(=O)NCCOc2ccccc2C(=O)N[C@H](C(=O)NCCCc2ccccc2)CCC(=O)N1C, the DD2 was 0 (zero if otherwise).
For Cc1noc(C2CCCN2C(=O)CN2CCC3(CCCCc4ccccc4OCCCNC3=O)CC2)n1 (centres unmarked), the DD2 was 0 (zero if otherwise).
For Cn1cnnc1C1CCCCN1C(=O)CN1CCC2(CCCCc3ccccc3OCCCNC2=O)CC1 (centres unmarked), the DD2 was 0 (zero if otherwise).

tested on: 3D7; test: not given; set-up: unit not given here; details: cited from earlier work

Point of comparison: Tolonium chloride, 3D7 99.5. Against it:
- CN1CCN(CCCN2c3ccccc3Sc3ccc(Cl)cc32)CC1 [Prochlorperazine edisylate] — lower, 73.3
- OCc1cc(C(O)CNCCCCCCOCCCCc2ccccc2)ccc1O (centres unmarked) [Salmeterol xinafoate] — lower, 72.5
- CC[C@]1(O)C[C@@H]2CN(CCc3c([nH]c4ccccc34)[C@@](C(=O)OC)(c3cc4c(cc3OC)N(C)[C@H]3[C@@](O)(C(N)=O)[C@H](O)[C@]5(CC)C=CCN6CC[C@]43[C@@H]65)C2)C1 [Vindesine] — lower, 81.9
- Phenylmercuric acetate — lower, 97.7

same assay, conditions: repurposing dataset, 179 approved drugs; ref https://www.nature.com/articles/nchembio806; cited from earlier work

Point of comparison: Corticotropin A, 3D7 86.4. Against it:
- COC(=O)[C@@H]1c2cc3c(c(O)c2[C@@H](O[C@@H]2O[C@@H](C)[C@H](OC)[C@@](C)(OC)[C@H]2OC)C[C@]1(C)O)C(=O)c1c(O)cc2c(c1C3=O)O[C@@H]1O[C@@]2(C)[C@H](O)[C@@H](N(C)C)[C@@H]1O [Nogalamycin] — lower, 85.3
- O=C1[O][Pt]2([NH][C@@H]3CCCC[C@H]3[NH]2)[O]C1=O [Oxaliplatin] — lower, 55.4
- CC(=O)O[C@H]1C(=O)[C@@]2(C)[C@H]([C@H](OC(=O)c3ccccc3)[C@]3(O)C[C@H](OC(=O)[C@H](O)[C@@H](NC(=O)c4ccccc4)c4ccccc4)C(C)=C1C3(C)C)[C@]1(OC(C)=O)CO[C@@H]1C[C@@H]2O [Paclitaxel] — lower, 84.5
- CC(=O)O[C@H]1C[C@@H]2CC[C@@H]3[C@H](CC[C@@]4(C)[C@H]3C[C@H]([N+]3(C)CCCCC3)[C@@H]4OC(C)=O)[C@@]2(C)C[C@@H]1[N+]1(C)CCCCC1 [Pancuronium bromide] — lower, 52.6
- N=C1C=CC(=C(c2ccc(N)cc2)c2ccc(N)cc2)C=C1 [Pararosaniline pamoate] — higher, 97.3
- Fc1ccc([C@@H]2CCNC[C@H]2COc2ccc3c(c2)OCO3)cc1 [Paroxetine] — lower, 85.4
- N=C(N)c1ccc(OCCCCCOc2ccc(C(=N)N)cc2)cc1 [Pentamidine isethionate] — higher, 99.1
- C1CCC(C(CC2CCCCN2)C2CCCCC2)CC1.O=C(O)/C=C\C(=O)O (centres unmarked) [Perhexilline maleate] — higher, 97.5
- OCCN1CCN(CCCN2c3ccccc3Sc3ccc(Cl)cc32)CC1 [Perphenazine] — lower, 85.6
- CN1CCC(=C2c3ccccc3Sc3ccccc32)CC1 [Pimethixene] — lower, 75.5
- CC(=O)c1ccc2c(c1)N(CCCN1CCC(CCO)CC1)c1ccccc1S2 [Piperacetazine] — higher, 88.5
- O.O.O.O=C([O-])[C@H]([O-])[C@@H]([O-])C(=O)[O-].O=C([O-])[C@H]([O-])[C@@H]([O-])C(=O)[O-].[K+].[K+].[Sb+3].[Sb+3] [Potassium antimonyl tartrate] — higher, 95.5
- COc1cc(NC(C)CCCN)c2ncccc2c1 (centres unmarked) [Primaquine] — higher, 99.1
- CCCC(C(=O)OCCN(CC)CC)(c1ccccc1)c1ccccc1 [Proadifen] — lower, 85.9
- Nc1ccc2cc3ccc(N)cc3nc2c1 [Proflavine] — higher, 96.2
- CC(C)NCC(O)c1ccc2ccccc2c1 (centres unmarked) [Pronetalol] — higher, 95.3
- CCC(=O)c1ccc2c(c1)N(CC(C)N(C)C)c1ccccc1S2.O=C(O)/C=C\C(=O)O (centres unmarked) [Propiomazine maleate] — lower, 77
- COc1ccc(C[C@H](N)C(=O)N[C@H]2[C@@H](O)[C@H](n3cnc4c(N(C)C)ncnc43)O[C@@H]2CO)cc1 [Puromycin] — higher, 98.9
- CCc1nc(N)nc(N)c1-c1ccc(Cl)cc1 [Pyrimethamine] — higher, 96.5
- CCN(CC)CCCC(C)Nc1c2ccc(Cl)cc2nc2ccc(OC)cc12 (centres unmarked) [Quinacrine] — higher, 99.2
- C=C[C@H]1C[N@@]2CC[C@H]1C[C@@H]2[C@@H](O)c1ccnc2ccc(OC)cc12 [Quinidine] — higher, 88.5
- C=C[C@H]1CN2CC[C@H]1C[C@H]2[C@H](OC(=O)OCC)c1ccnc2ccc(OC)cc12 [Quinine ethyl carbonate] — higher, 94.5
- C=C[C@H]1C[N@@]2CC[C@H]1C[C@H]2[C@H](O)c1ccnc2ccc(OC)cc12 [Quinine] — higher, 98.3
- O=C(c1ccc(OCCN2CCCCC2)cc1)c1c(-c2ccc(O)cc2)sc2cc(O)ccc12 [Raloxifene] — higher, 97.1
- CO[C@H]1C[C@@H]2CC[C@@H](C)[C@@](O)(O2)C(=O)C(=O)N2CCCC[C@H]2C(=O)O[C@H]([C@H](C)C[C@@H]2CC[C@@H](O)[C@H](OC)C2)CC(=O)[C@H](C)/C=C(\C)[C@@H](O)[C@@H](OC)C(=O)[C@H](C)C[C@H](C)/C=C/C=C/C=C/1C [Rapamycin] — lower, 51.4
- Cc1nc2n(c(=O)c1CCN1CCC(c3noc4cc(F)ccc34)CC1)CCCC2 [Risperidone] — lower, 67.5
- CC(C)c1nc(CN(C)C(=O)N[C@H](C(=O)N[C@@H](Cc2ccccc2)C[C@H](O)[C@H](Cc2ccccc2)NC(=O)OCc2cncs2)C(C)C)cs1 [Ritonavir] — lower, 84.9
- C=CC[N+]1([C@H]2C[C@H]3[C@@H]4CC[C@H]5C[C@H](O)[C@@H](N6CCOCC6)C[C@]5(C)[C@H]4CC[C@]3(C)[C@H]2OC(C)=O)CCCC1 [Rocuronium bromide] — lower, 52.6
- CC[C@@H](C(=O)[C@@H](C)[C@@H](O)[C@H](C)[C@@H]1O[C@@H]([C@@H](CC)C(=O)O)CC[C@@H]1C)[C@H]1O[C@]2(C=C[C@@H](O)[C@]3(CC[C@@](C)([C@H]4CC[C@](O)(CC)[C@H](C)O4)O3)O2)[C@H](C)C[C@@H]1C [Salinomycin] — higher, 99.1
- CC(=O)[O][Pt]([NH2])([Cl])([Cl])([NH]C1CCCCC1)[O]C(C)=O [Satraplatin] — higher, 87.3
- CCCCCCCCCCCCCCCCCC[N+](C)(C)C.[Cl-] [Stearyltrimethylammonium chloride] — lower, 78.6
- CCCCCCCCNC(C)C(O)c1ccc(SC(C)C)cc1 (centres unmarked) [Suloctidil] — higher, 97.3
- CO[C@@H]1[C@H](OC(=O)NC(=O)CCl)CC[C@]2(CO2)[C@H]1[C@@]1(C)O[C@@H]1CC=C(C)C [TNP-470] — lower, 67
- CC/C(=C(\c1ccccc1)c1ccc(OCCN(C)C)cc1)c1ccccc1 [Tamoxifen] — higher, 97.5
- CC(C)N1CCN(c2ccc(OCC3COC(Cn4cncn4)(c4ccc(Cl)cc4Cl)O3)cc2)CC1 (centres unmarked) [Terconazole] — lower, 56
- Nc1nc2nc[nH]c2c(=S)[nH]1 [Thioguanine] — lower, 68.7
- CN(C)C(=S)SSC(=S)N(C)C [Thiram] — higher, 96.7
- CCCCCCCCCCCCCCCC[N+](C)(C)CCN(Cc1ccc(OC)cc1)c1ncccn1 [Thonzonium bromide] — higher, 97.5
- CCN(CC)CCOc1ccc2c(c1)C(=O)c1cc(OCCN(CC)CC)ccc1-2 [Tilorone] — higher, 98.9
- CC[C@@]1(O)C(=O)OCc2c1cc1n(c2=O)Cc2cc3c(CN(C)C)c(O)ccc3nc2-1 [Topotecan] — lower, 80.1
- Nc1nc(N)c2nc(-c3ccccc3)c(N)nc2n1 [Triamterene] — lower, 79.4
- CCC(C)C(C(=O)OCC[N+](C)(CC)CC)c1ccccc1 (centres unmarked) [Valethamate] — lower, 79.9
- COc1ccc(CCN(C)CCCC(C#N)(c2ccc(OC)c(OC)c2)C(C)C)cc1OC (centres unmarked) [Verapamil] — higher, 98
- C=Cc1c(C)c2cc3nc(cc4[nH]c(cc5nc(cc1[nH]2)C(C)=C5CCC(=O)O)c(CCC(=O)OC)c4C)[C@@]1(C)C3=CC=C(C(=O)OC)[C@H]1C(=O)OC [Verteporfin] — higher, 95.4
- CC[C@]1(O)C[C@@H]2CN(CCc3c([nH]c4ccccc34)[C@@](C(=O)OC)(c3cc4c(cc3OC)N(C)[C@H]3[C@@](O)(C(=O)OC)[C@H](OC(C)=O)[C@]5(CC)C=CCN6CC[C@]43[C@@H]65)C2)C1 [Vinblastine] — lower, 66.7
- CC[C@]1(O)C[C@H]2CN(CCc3c([nH]c4ccccc34)[C@@](C(=O)OC)(c3cc4c(cc3OC)N(C=O)[C@H]3[C@@](O)(C(=O)OC)[C@H](OC(C)=O)[C@]5(CC)C=CCN6CC[C@]43[C@@H]65)C2)C1 [Vincristine] — lower, 69.5
- CCC1=C[C@@H]2CN(C1)Cc1c([nH]c3ccccc13)[C@@](C(=O)OC)(c1cc3c(cc1OC)N(C)[C@H]1[C@@](O)(C(=O)OC)[C@H](OC(C)=O)[C@]4(CC)C=CCN5CC[C@]31[C@@H]54)C2 [Vinorelbine] — higher, 97.7
- Atovaquone — higher, 97
- Brilliant green — higher, 93.5
- Carboplatin — lower, 76.4
- Doxycycline — lower, 59.7
- Gramicidin A — higher, 98.5
- Heparin — lower, 79.9
- Meclocycline — lower, 68.7
- Plicamycin — higher, 98.2
